Source: ChEMBL document CHEMBL4513101, “Naegleria gruberi Pathogen Box compounds screening” (2021)
Activity calls are given as the source filed them. Rule as the data show it: active = inhibition of 80% or more and inactive = less.

System: Naegleria gruberi
Assay: microbe, parasite or virus in culture
Assay type: functional
Settings: NEG-M, CONC 10 uM
Description: Growth inhibiting activity of Naegleria gruberi in vitro

Row | SMILES | inhibition at 10 µM
1 | CC(C(=O)Nc1ccc2oc(-c3ccncc3)nc2c1)c1ccccc1 (stereo not given) | 48.6% (not active)
2 | CC1CCCCN1C(=O)NCCc1coc(-c2ccc(F)cc2)n1 (stereo not given) | 42.6% (not active)
3 | O=C1Nc2ccc(Br)cc2C12NCCc1c2[nH]c2ccccc12 (stereo not given) | 33.5% (not active)
4 | O=C(c1ccc(NCCO)cc1)C1C[C@H]1c1ccc(Cl)cc1 (stereo not given in full) | 28.7% (not active)
5 | COc1cccc(-c2nc3c(N4CCCC4)cccc3n2CC2CCCN2)n1 (stereo not given) | 51.5% (not active)
6 | COc1cc(C2=NCCN2)ccc1-c1cn(-c2cccc(C3=NCCN3)c2)nn1 | 20.1% (not active)
7 | Cc1cc(C(=O)Nc2ccc(-c3ccccc3)cc2)no1 | 35.7% (not active)
8 | COc1ccc(C(=N)N)cc1-c1cn(-c2ccc(C(=N)N)cc2)nn1 | 22.8% (not active)
9 | Cc1ccc(C(=O)Nc2ccc(S(=O)(=O)O)c3cc(S(=O)(=O)O)cc(S(=O)(=O)O)c23)cc1NC(=O)c1cccc(NC(=O)Nc2cccc(C(=O)Nc3cc(C(=O)Nc4ccc(S(=O)(=O)O)c5cc(S(=O)(=O)O)cc(S(=O)(=O)O)c45)ccc3C)c2)c1 [SURAMIN] | 32% (not active)
10 | Cc1nn(Cc2ccccc2)c(Cl)c1C(=O)NC1CCCCCC1 | 36.1% (not active)
11 | NCC(c1cccs1)S(=O)(=O)c1ccccc1 (stereo not given) | 7.1% (not active)
12 | Nc1ncnc2c1c(Cc1cccc3ccccc13)nn2CC1CCNCC1 | 11.4% (not active)
13 | CNC(=O)C1Cc2ccccc2N1C(=O)Cc1ccc(F)cc1 (stereo not given) | 38% (not active)
14 | O=C(NCCc1c[nH]c2ccccc12)c1cc2ccccc2oc1=O | 33.7% (not active)
15 | c1ccc(-c2cc(N3CCCCC3)c3ccccc3n2)nc1 | 20.7% (not active)
16 | Cc1cc(Cl)ccc1NC(=O)CCc1ccc(S(=O)(=O)NCC(C)C)cc1 | 13.9% (not active)
17 | CCOc1ccccc1C(=O)Nc1cccc(-c2nc3ncccn3c2C)c1 | 34.5% (not active)
18 | N#Cc1ccc(-c2ccc(OCC(N)=O)cc2)cc1 | 33.5% (not active)
19 | CC(C)(C)c1cc(C(=O)N2CCN(c3nccnc3C#N)CC2)n(Cc2ccccc2)n1 | 31.6% (not active)
20 | CCC(Sc1nc2ccccc2o1)C(=O)Nc1nccs1 (stereo not given) | 44.3% (not active)
21 | Oc1c(I)cc(I)c2cccnc12 [IODOQUINOL] | 51.6% (not active)
22 | Clc1ccc(-n2cc(COc3ccnc4ccccc34)nn2)cc1 | 75.2% (not active)
23 | COc1ccc(N(CCc2cccc(C)n2)C(=O)C2CCCCC2)cc1 | 20% (not active)

Row | SMILES | inhibition at 10 µM
24 | Cc1noc(C)c1COc1cccc(C(=O)N=c2[nH]cccc2C)c1 | 36.7% (not active)
25 | O=C(NCCN1CCCC1)c1cc(NCCCCN2CCC(F)(F)CC2)nc2ccc(Cl)cc12 | 4.3% (not active)
26 | CC(C)(C)c1cnc(NC(=O)c2ccccc2O)s1 | 0% (not active)
27 | CO/N=C(\C(=O)OC)c1ccccc1CO/N=C(\C)c1cccc(C(F)(F)F)c1 | 43.9% (not active)
28 | CC(C)n1ncc2c(C(=O)NCC(c3cccs3)N3CCOCC3)cc(-c3ccccc3)nc21 (stereo not given) | 48.6% (not active)
29 | CCC(C)NC(=O)c1ccc(NC(=O)C2(c3ccccc3)CCCC2)cc1 (stereo not given) | 0.4% (not active)
30 | FC(F)(F)c1cc(NCCc2ccccc2)nc(-c2ccccn2)n1 | 24.6% (not active)
31 | CC(C)/N=c1\cc2n(-c3ccc(Cl)cc3)c3ccccc3nc-2cc1Nc1ccc(Cl)cc1 [CLOFAZIMINE] | 67.9% (not active)
32 | COc1ccc2nc(C)cc(OCC(=O)NCc3ccccc3)c2c1 | 41.1% (not active)
33 | c1ccc(Oc2ccc(-c3cncc(-c4ccc5[nH]ccc5c4)n3)cc2)cc1 | 11.4% (not active)
34 | Clc1cccc(C(c2ccc(CN3CCNCC3)cc2)n2ccnc2)c1 (stereo not given) | 20.3% (not active)
35 | Cc1ccc(-c2nc(CN(Cc3ccccn3)C(C)C)cs2)o1 | 26.7% (not active)
36 | O=C1O[C@@H](CO)CN1c1cc(F)c(C2=CCN(Cc3ccccc3)CC2)c(F)c1 | 8.3% (not active)
37 | O=C(Nc1ccc(N2CCNCC2)cc1)c1ccn2ncc(-c3cccc(Cl)c3)c2n1 | 18.8% (not active)
38 | C[C@]1(O)C[C@@H](c2nc(-c3ccc4ccc(-c5ccccc5)nc4c3)c3c(N)nccn32)C1 [LINSITINIB] | 59.4% (not active)
39 | CS(=O)(=O)c1ccccc1C(=O)N(Cc1ccccc1)c1ccccc1 | 31.8% (not active)
40 | CC(C)(C)n1nc(Cc2ccc(F)c(Cl)c2)c2c(N)ncnc21 | 32% (not active)
41 | CO[C@@H]1CN(c2ccc(C#CC3(O)CN4CCC3CC4)c(Cc3ccccc3)n2)C[C@H]1O (stereo not given in full) | 0% (not active)
42 | COc1cc(Br)cc2cc(C(=O)Nc3cccc(C(F)(F)F)c3)c(=O)oc12 | 21% (not active)
43 | COc1ccccc1OCCCCn1c(C2CC2)nc2ccccc21 | 42.6% (not active)
44 | CC(C)n1nc(-c2cc3c(Cl)cccc3[nH]2)c2c(N)ncnc21 | 72.2% (not active)
45 | O=C(OCc1ccccc1)N1CCC(c2cc(-c3ccncc3)c(-c3ccc(F)cc3)[nH]2)CC1 | 42.4% (not active)
46 | CCCCS(=O)(=O)Nc1ccc2cnn(C)c2c1 | 17.4% (not active)

Row | SMILES | inhibition at 10 µM
47 | NCC(=O)N1CCn2c(nc(-c3ccccc3)c2Nc2ccc3c(c2)OCO3)C1 | 8.3% (not active)
48 | COc1cccc(-c2cc3c(Nc4cccnc4)nccc3[nH]2)c1 | 10% (not active)
49 | COc1cccc(OCC(=O)c2ccc(Br)cc2)c1 | 33.4% (not active)
50 | CNc1cc(C)nc(C2CN(C(=O)c3n[nH]c4ccccc34)CCO2)c1 (stereo not given) | 24.2% (not active)
51 | CN1CCN(c2cc(-c3ccc(F)cc3)nc(-c3ccncc3)n2)CC1 | 30% (not active)
52 | Cc1cnc(N2CCN[C@@H](Cc3ccccc3)C2)nc1Oc1ccc(-n2ccnc2)cc1 | 9.8% (not active)
53 | CC1(C)OB(O)c2ccc(C3=NOC(c4cc(Cl)c(F)c(Cl)c4)(C(F)(F)F)C3)cc21 (stereo not given) | 62.5% (not active)
54 | COc1ccc(Cn2cnc3c(-c4ccco4)nc(Cl)nc32)cc1 | 36.9% (not active)
55 | N=C(N)c1ccc(OCCCCCOc2ccc(C(=N)N)cc2)cc1 [PENTAMIDINE] | 43% (not active)
56 | N#Cc1ccc(-c2cnc(N)c(-c3ccc(C(N)=O)cc3)n2)cc1 | 21.8% (not active)
57 | CNC(=O)CNc1nc(-c2ccccn2)nc2scc(-c3ccccc3)c12 | 22.6% (not active)
58 | Cc1cc(C)n(-c2ccc(NC(=O)C3CCN(Cc4cnc(C)s4)CC3)cc2)n1 | 6.1% (not active)
59 | Cc1cc(C)cc(COc2ccc3c(C)c(CCC(=O)O)c(=O)oc3c2C)c1 | 40.9% (not active)
60 | COC(=O)c1c(NC(=O)c2cc3ccccc3oc2=O)sc2c1CCN(Cc1ccccc1)C2 | 17.2% (not active)
61 | Cc1nc(-c2cccc(NCc3ccccc3)c2)[nH]c1C | 8.1% (not active)
62 | Cc1ccc2c(c1C)NC(=O)C21NN=C(c2ccccc2)S1 (stereo not given) | 20.7% (not active)
63 | O=C(Nc1cccc(-c2ccc(NCCCN3CCCC3)nc2)c1)c1ccccc1 | 8.2% (not active)
64 | Cc1ccccc1CN1CCC(O)(c2ccc(Cl)c(C(F)(F)F)c2)CC1 | 47.4% (not active)
65 | Cn1ccnc1CNCCS(=O)(=O)c1cccc(Nc2ccc(-c3cccc(F)c3)cn2)c1 | 26.5% (not active)
66 | CNc1snc(C)c1C(=O)NCCOc1ccc(OC)cc1 | 40.5% (not active)
67 | CC(C)(C)OC(=O)N1CCN(c2nccc(-c3ccc(-c4ccc(Cl)cc4)s3)n2)CC1 | 17% (not active)
68 | O=C(c1[nH]nc2c1CCCC2)N1CCN(Cc2ccc3c(c2)OCO3)CC1 | 29.5% (not active)
69 | O=C(C1CCCCC1)N1CC(=O)N2CCc3ccccc3C2C1 (stereo not given) [PRAZIQUANTEL] | 41.5% (not active)

Row | SMILES | inhibition at 10 µM
70 | CC(C)(C)[C@H]1CC[C@H](CC2=C(O)C(=O)c3ccccc3C2=O)CC1 [BUPARVAQUONE] | 92.9% (active)
71 | Nc1nc2cc(-c3cncc(Oc4ccc(F)cc4)c3)ccc2[nH]1 | 35.5% (not active)
72 | CCc1nc2ccccc2n1CC(O)COc1cc(C)ccc1Cl (stereo not given) | 25.3% (not active)
73 | COc1ccc2nc(C)cc(OCC(=O)Nc3ccccc3OC)c2c1 | 34.9% (not active)
74 | CCCCOC(=O)Nc1cc2nc(C3CCCCC3)[nH]c2cc1N1CCCC1 | 64.3% (not active)
75 | O=C(NCCc1ccn(-c2ccccc2)n1)C1CCCCC1 | 6.2% (not active)
76 | NC(=O)c1cc(Br)ccc1OCCOc1ccccc1 | 36.1% (not active)
77 | O=C(c1ccc(F)cc1)N(CCNc1ccccc1)c1ccccc1 | 24.1% (not active)
78 | Cc1nnc(NCc2cccc(Cl)c2)c2ccccc12 | 38.4% (not active)
79 | Cc1nn(C(=O)Nc2cccc(C(F)(F)F)c2)c(C)c1Sc1ncccn1 | 16.7% (not active)
80 | COc1cc(C(F)(F)F)nc2ccc(C)c(N)c12 | 2.1% (not active)
81 | FC(F)(F)c1cccc(-c2nc3c(NCc4ccncc4)nccc3[nH]2)c1 | 25.1% (not active)
82 | C[C@H](C(N)=O)N1CCCC[C@@H]1c1ccc(OCc2cccc(F)c2)cc1 | 13.9% (not active)
83 | CCc1nc2ccc(C(=O)NCc3ccc4c(c3)OCO4)cn2c1N(C)Cc1cccs1 | 36% (not active)
84 | c1ccc(Oc2ccc(-c3cc(CN4CCOCC4)[nH]n3)cc2)cc1 | 3.2% (not active)
85 | Cc1nnc(NC(=O)c2cn(-c3ccccc3)nc2-c2ccccc2C)o1 | 34.7% (not active)
86 | Cc1cc(NCC(C)C)c2[nH]nc(-c3ccccc3)c2n1 | 25.8% (not active)
87 | COC(=O)C1=C(C)NC(C)=C(C(=O)OC(C)C)C1c1cccc2nonc12 (stereo not given) [ISRADIPINE] | 48.7% (not active)
88 | CC(C)(C)c1ccc(N[C@@H]2CCCC[C@H]2NC(=O)c2ccco2)cc1 | 8.8% (not active)
89 | CC(=O)NCC1CN(c2ccc(-c3ccc(CO)cc3)c(F)c2)C(=O)O1 (stereo not given) | 35.1% (not active)
90 | Cc1[nH]c2cc(F)cc(F)c2c(=O)c1-c1ccc(Oc2ccc(OC(F)(F)F)cc2)cc1 | 11.3% (not active)
